In PubChem BioAssay (NCI):
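GI50: concentration for 50% inhibition of growth. TGI is the concentration that stops growth completely.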

Legend:
Test in all cases: NCI tumour cell line growth inhibition, 384-well format
MOLT-4 leukemia = tested on: MOLT-4 leukemia
SK-MEL-2 melanoma = tested on: SK-MEL-2 melanoma
SN12C renal = tested on: SN12C renal
HCT-15 colon = tested on: HCT-15 colon
A549 NSCLC = tested on: A549 NSCLC
PC-3 prostate = tested on: PC-3 prostate
MALME-3M melanoma = tested on: MALME-3M melanoma
NCI-H522 lung = tested on: NCI-H522 lung
SF-295 CNS = tested on: SF-295 CNS
SF-539 CNS = tested on: SF-539 CNS
SK-MEL-28 melanoma = tested on: SK-MEL-28 melanoma
DU-145 prostate = tested on: DU-145 prostate
SW-620 colon = tested on: SW-620 colon
MDA-MB-468 breast = tested on: MDA-MB-468 breast
HCT-116 colon = tested on: HCT-116 colon
SK-OV-3 ovarian = tested on: SK-OV-3 ovarian
KM12 colon = tested on: KM12 colon
SNB-19 CNS = tested on: SNB-19 CNS
COLO 205 colon = tested on: COLO 205 colon
LOX IMVI melanoma = tested on: LOX IMVI melanoma
SNB-75 CNS = tested on: SNB-75 CNS
K-562 leukemia = tested on: K-562 leukemia
OVCAR-3 ovarian = tested on: OVCAR-3 ovarian
UACC-257 melanoma = tested on: UACC-257 melanoma
HS 578T breast = tested on: HS 578T breast
NCI-H226 lung = tested on: NCI-H226 lung
HOP-62 NSCLC = tested on: HOP-62 NSCLC
NCI-H23 lung = tested on: NCI-H23 lung
RPMI-8226 leukemia = tested on: RPMI-8226 leukemia

CC(C)[C@H](O)C(=O)N[C@@H](C)C(=O)N[C@@H]1C(=O)N(C)CCc2ccccc21
GI50 (MOLT-4 leukemia): > 100 µM | TGI (MOLT-4 leukemia): > 100 µM | GI50 (SK-MEL-2 melanoma): > 100 µM | TGI (SK-MEL-2 melanoma): > 100 µM | GI50 (SN12C renal): > 100 µM | TGI (SN12C renal): > 100 µM | GI50 (HCT-15 colon): > 100 µM | TGI (HCT-15 colon): > 100 µM | GI50 (A549 NSCLC): > 100 µM | TGI (A549 NSCLC): > 100 µM | GI50 (PC-3 prostate): > 100 µM | TGI (PC-3 prostate): > 100 µM | GI50 (MALME-3M melanoma): > 100 µM | TGI (MALME-3M melanoma): > 100 µM | GI50 (NCI-H522 lung): > 100 µM | TGI (NCI-H522 lung): > 100 µM | GI50 (SF-295 CNS): > 100 µM | TGI (SF-295 CNS): > 100 µM | GI50 (SF-539 CNS): > 100 µM | TGI (SF-539 CNS): > 100 µM | GI50 (SK-MEL-28 melanoma): > 100 µM | TGI (SK-MEL-28 melanoma): > 100 µM | GI50 (DU-145 prostate): > 100 µM | TGI (DU-145 prostate): > 100 µM | GI50 (SW-620 colon): > 100 µM | TGI (SW-620 colon): > 100 µM | GI50 (MDA-MB-468 breast): > 100 µM | TGI (MDA-MB-468 breast): > 100 µM | GI50 (HCT-116 colon): > 100 µM | TGI (HCT-116 colon): > 100 µM | GI50 (SK-OV-3 ovarian): > 100 µM | TGI (SK-OV-3 ovarian): > 100 µM | GI50 (KM12 colon): > 100 µM | TGI (KM12 colon): > 100 µM | GI50 (SNB-19 CNS): > 100 µM | TGI (SNB-19 CNS): > 100 µM | GI50 (COLO 205 colon): > 100 µM | TGI (COLO 205 colon): > 100 µM | GI50 (LOX IMVI melanoma): > 100 µM | TGI (LOX IMVI melanoma): > 100 µM | GI50 (SNB-75 CNS): > 100 µM | TGI (SNB-75 CNS): > 100 µM | GI50 (K-562 leukemia): > 100 µM | TGI (K-562 leukemia): > 100 µM | GI50 (OVCAR-3 ovarian): > 100 µM | TGI (OVCAR-3 ovarian): > 100 µM | GI50 (UACC-257 melanoma): > 100 µM | TGI (UACC-257 melanoma): > 100 µM | GI50 (HS 578T breast): > 100 µM | TGI (HS 578T breast): > 100 µM | GI50 (NCI-H226 lung): > 100 µM | TGI (NCI-H226 lung): > 100 µM | GI50 (HOP-62 NSCLC): > 100 µM | TGI (HOP-62 NSCLC): > 100 µM | GI50 (NCI-H23 lung): > 100 µM | TGI (NCI-H23 lung): > 100 µM | GI50 (RPMI-8226 leukemia): > 100 µM | TGI (RPMI-8226 leukemia): > 100 µM
